The test system of the assay is CT26 cells. Nature of the assay: Anti-tumor vaccination assay, CT26 cells in BALB/c mice. As to conditions: for frequency of mice showing a protective response: 8 Gy + 10 μM compound 24 h. The format is in vivo, mouse. How it is done: FIG. 5. Identification of cannibalism modulators as immunogenic cell death inducers. MCA205 (A) or CT26 (E, I, M, Q) cells were treated with the indicated drugs. After 24 h of coculture with the indicated treatment, cell death was monitored by staining DiOC6(3) and PI, and the percentage of dying (DiOC6(3)^low PI^−, open bars) and dead (DiOC6(3)^low PI^+, closed bars) cells was determined by cytofluorometry. (B-D) MCA205 cells or (F-H, J-L, N-P, R-T) CT26 cells cocultured after x irradiation with the indicated compounds were inoculated subcutaneously into the right flank of […] or BALB/c mice, respectively. Seven days later, the mice were rechallenged with live cells injected into the opposite flank, and tumor growth was monitored (five mice per group).
FIG. 6. Tumor vaccination experiments. CT26 cells were treated for 24 hours with 10 μM VP331 (A, F, K), 10 μM Minaprine (B, G, L), 10 μM Lopa87 (C, H, M), 10 μM SG6163F (D, I, N), 10 μM Azaguanine-8 (8-aza) (E, J, O) alone or combined with 8 Gy ionizing radiation and inoculated (s.c.) into immunocompetent BALB/c mice, which were rechallenged at the opposite flank 7 days later with the same cancer cells. The percentage of tumor-free mice was evaluated three times a week for the following 38 days. Percentage of total tumor free mice (A-E), tumor free-mice at the first injection site (F to J, P) or at the second injection site (K to O, Q) are shown. (*P<0.05, **P<0.01, ***P<0.001, two-way ANOVA).
The combination of IRCCE with IR induces efficient antitumor immunity. Considering that immunogenic cell death (ICD) inducers were identified (such as Digoxin, Digitoxin, Lanatoside C or Doxorubicin hydrochloride)^3, 4, 48-51) as IRCCE, the ability of these compounds to induce an antitumor immunity after radiotherapy was evaluated. First, a preclinical approaches was developed to study the immunological effects of IRCCE on two mouse models of carcinoma (colon CT26 carcinoma and fibrosarcoma MCA205). Initially, the ability of the combination of IRCCE+IR to trigger a specific anti-tumor immune response was appreciated using immunocompetent mice through anti-tumor vaccination assays. According to previously published studies^52, the injection of cancer cells succumbing to an immunogenic cell death (ICD) into immunocompetent mice must elicit a protective immune response that is specific for tumor antigens. Thus, 3×10^5 MCA205 cells were first treated with 10 μM of SG6163F for 24 hours. Then, treated cells were inoculated subcutaneously in 200 μl PBS into the lower flank of 8-week-old female C57BL/6 mice. One week later, 3×10^4 untreated control cells were inoculated into the contralateral flank of mice. Tumors were evaluated weekly using a common caliper. Animals bearing tumors that exceeded 20-25% body mass were euthanatized. […] Then, 3×10^6 CT26 cells were irradiated with 8 Gy in presence of 10 μM of SG6163F (FIGS. 5E and 5F), VP331 (FIGS. 5I and 5J), Minaprine dihydrochloride (FIGS. 5M and 5N) or LOPA87 (FIGS. 5Q and 5R) for 24 hours. Then, cells were inoculated as previously described subcutaneously in […] into the lower flank of 8-week-old female BALB/c mice. One week later, 5×10^5 untreated control cells were inoculated into the contralateral flank of mice and tumors were evaluated weekly using a common caliper. As previously mentioned, animals bearing tumors that exceeded 20-25% body mass were euthanatized. The percentage of dying cells in each condition was evaluated by determining with DiOC(6)3/IP staining (FIGS. 5E, 5I, 5M and 5Q). Finally, the ability of these compounds to repress the growth of cancer cells that have been injected 7 days after injection of irradiated and treated cancer cells was appreciated.
A second anti-tumor vaccination assay was done on CT26 mouse models of carcinoma as previously described. […]

Take `Cc1cc(-c2ccccc2)nnc1NCCN1CCOCC1.Cl.Cl` [Minaprine dihydrochloride]: the “frequency of mice showing a protective response” value (first assay: CT26 cells, rechallenge one week later) is “significant increase in the frequency of mice showing a protective response” and the “frequency of mice showing a protective response” value (second assay: CT26 cells, rechallenge 7 days later) is listed as “Significant increases in the frequency of mice showing a protective response”. Also, the “protective response after injection of cancer cells” value (second assay: CT26 cells treated with 10 μM compound alone (no IR)) is recorded as “induce an increase of protective response”.

The record behind these values is patent US11517575B2, “Use of minaprine to reduce tumor growth” (Institut Gustave-Roussy, priority 2019, dated 2022).
